The subject of series [1] is CHO cells modified to produce a monoclonal antibody. In words: Effect of addition of L-cysteine derivatives to basal medium on proliferation of CHO cells. Type of series: cell-based, Chinese hamster. The settings on record: for use as an alternative for L-cysteine in the basal medium: 1.3 mM in basal medium; for proliferation of cells (viable cell count): 1.3 mM in basal medium otherwise without L-cysteine, day 7 of culture, FIG. 1. As for the experimental part: In this Example, an effect of addition of L-cysteine derivatives to a basal medium on proliferation of CHO cells was evaluated. As the L-cysteine derivatives, (2RS,4R)-2-methyl-2,4-thiazolidinedicarboxylic acid 2-ethyl ester (hereinafter, also referred to as “Compound 1”) and (2RS,4R)-2-methyl-2,4-thiazolidinedicarboxylic acid (hereinafter, also referred to as “Compound 2”) were used. As the CHO cells, CHO cells modified to produce a monoclonal antibody were used.
CELLiST (registered trademark) Basal media (Ajinomoto Co., Ltd.: BASAL3) without L-cysteine was prepared, to obtain a culture medium without addition of L-cysteine. The culture medium without addition of L-cysteine was added with L-cysteine, Compound 1, or Compound 2, to prepare a culture medium containing 1.3 mM L-cysteine, 1.3 mM Compound 1, or 1.3 mM Compound 2. Each culture medium was added with LR3-IGF-1 (SIGMA-ALDRICH: I1271-1MG, final concentration of 50 μg/mL) and L-Glutamine (Thermo Fisher SCIENTIFIC: 25030081, final concentration of 6 mM), to prepare a basal medium.
A 3 mL-aliquot of a CHO cell suspension adjusted to 3×10^5 cells/mL using the prepared basal medium was seeded into a 6 well plate (CORNING: 3471), and cultured for 11 days. The culture was carried out with n=3 for all experimental groups. The culture temperature was 37° C. and the agitation speed was 110 rpm. A cell culture broth was sampled on days 7 and 11 from the start of the culture, and the viable cell count was measured using a viable/dead cells autoanalyzer Vi-CELL™ XR (Beckman Coulter).

The test system is the same in series [2]. Briefly: Effect of addition of L-cysteine derivatives to feed medium on proliferation of CHO cells and antibody production (1). The note with it: for antibody production amount: 14.5, 29 or 58 mM in feed medium, fed on days 4, 7, 9, 11, 14 days culture, FIG. 3. The class given is cell-based, Chinese hamster. As to the method:
In this Example, an effect of addition of L-cysteine derivatives to a feed medium on proliferation of CHO cells and antibody production was evaluated. As the L-cysteine derivatives, Compounds 1 and 2 were used. As the CHO cells, CHO cells modified to produce a monoclonal antibody were used.
CELLiST (registered trademark) Basal media (Ajinomoto Co., Ltd.: BASAL3; containing 1.3 mM L-cysteine) was added with LR3-IGF-1 (SIGMA-ALDRICH: I1271-1MG, final concentration of 50 μg/mL) and L-Glutamine (Thermo Fisher SCIENTIFIC: 25030081, final concentration of 6 mM), to prepare a basal medium.
Feed media (9 kinds in total) each containing 82 g/L Cellvento (registered trademark) Feed-210 (Merck: 1.02488.0005), 70 g/L glucose (Wako Pure Chemical Industries, Ltd.: 043-31163), and L-cysteine, Compound 1, or Compound 2 each at 14.5 mM, 29 mM, or 58 mM were prepared. In addition, a feed medium without addition of L-cysteine, which only contained 82 g/L Cellvento (registered trademark) Feed-210 and 70 g/L glucose, was prepared. Separately, a tyrosine concentrate (L-tyrosine disodium salt dihydrate (Merck: 122666-87-9) 149.64 g/L, pH 11.3) was prepared.
A 30 mL-aliquot of a CHO cell suspension adjusted to 3×10^5 cells/mL using the prepared basal medium was seeded into 125 mL-volume flasks (CORNING: 431143), and cultured for 14 days. The culture was carried out with n=2 for all experimental groups. The culture temperature was 37° C. and the agitation speed was 110 rpm. A 1.8 mL-aliquot of each of the prepared feed media and a 60 μL-aliquot of the tyrosine concentrate were added on days 4, 7, 9, and 11 from the start of the culture. A cell culture broth was sampled on days 4, 7, 9, 11, and 14 from the start of the culture, and the viable cell count was measured using a viable/dead cells autoanalyzer Vi-CELL™ XR (Beckman Coulter), and the antibody production amount was measured using Octet QK (FORTEBIO).

Series [3] is described as follows: Stability of L-cysteine derivatives in feed medium (crystal precipitation by visual observation). The note with it: for crystal precipitation, Days 0 / crystal precipitation, Days 1 / crystal precipitation, Days 7 / crystal precipitation, Days 22 / crystal precipitation, Days 30: stored at 5° C. in the dark; for crystal precipitation, Days 0: day 0; for crystal precipitation, Days 1: day 1; for crystal precipitation, Days 7: day 7; for crystal precipitation, Days 22: day 22; for crystal precipitation, Days 30: day 30. The class given is physicochemical. As to the method: In this Example, the stability of L-cysteine derivatives in a feed medium was evaluated. As the L-cysteine derivatives, Compounds 1 and 2 were used.
A feed medium containing 82 g/L Cellvento (registered trademark) Feed-210 (Merck: 1.02488.0005), 70 g/L glucose (Wako Pure Chemical Industries, Ltd.: 043-31163), and 58 mM L-cysteine, 58 mM Compound 1, or 58 mM Compound 2, and a feed medium without addition of L-cysteine, which only contained 82 g/L Cellvento (registered trademark) Feed-210 and 70 g/L glucose were prepared at pH 5.2 to 5.6, which are described in the instruction of Feed-210, and at pH 7.0, which is a neutral pH condition used for usual cultivation, to obtain 8 kinds of feed media in total. All of the feed media were prepared as transparent solutions.
After each of the feed media was stored at 5° C. in the dark, crystal precipitation was confirmed by visual observation. […] In the table, “+” to “++++” indicate that crystal precipitation was observed, and the higher the number of “+”, the greater the degree of precipitation. Under the addition condition, significant precipitation was observed from one week after the start of storage. Under the condition of adding Compound 2, precipitation was observed from 22 days after the start of storage.

A short description of series [4]: Stability of L-cysteine derivatives in buffer solution (crystal precipitation by visual observation). The class given is physicochemical. The settings on record: 58 mM in PBS buffer pH 7.0 to 7.2; for crystal precipitation, Days 0 / crystal precipitation, Days 3 / crystal precipitation, Days 7 / crystal precipitation, Days 14 / crystal precipitation, Days 21 / crystal precipitation, Days 24: stored at 5° C. in the dark; for crystal precipitation, Days 0: day 0; for crystal precipitation, Days 3: day 3; for crystal precipitation, Days 7: day 7; for crystal precipitation, Days 14: day 14; for crystal precipitation, Days 21: day 21; for crystal precipitation, Days 24: day 24. As to the method: In this Example, the stability of L-cysteine derivatives in a buffer solution was evaluated.
In the table, “+” to “++++” indicate that crystal precipitation was observed, and the higher the number of “+”, the greater the degree of precipitation.

Where [5] appears, read: 58 mM in feed medium pH 5.2 to 5.6.
Where [6] appears, read: 58 mM in feed medium, 5° C. in the dark.

Consider `CCOC(=O)C1(C)N[C@H](C(=O)O)CS1` (mixture of isomers) [Compound 1, (2RS,4R)-2-methyl-2,4-thiazolidinedicarboxylic acid 2-ethyl ester], for which, in series [1], the “use as an alternative for L-cysteine in the basal medium” value is “unable to substitute the whole of L-cysteine in the basal medium” and the “proliferation of cells (viable cell count)” value (from here on “proliferation of cells”) is listed as “no proliferation of cells was observed”. In series [2], the antibody production amount entry was “almost equivalent to that of the experimental group of L-cysteine”. For the same compound, the “use as an alternative for L-cysteine in the feed medium” value in series [2] (in feed medium, basal medium containing 1.3 mM L-cysteine) is “able to be used as an alternative for L-cysteine in the feed medium”. In addition, in series [3] (setting [5]), the “crystal precipitation, Days 0” value is listed as “−”; the “crystal precipitation, Days 1” value was “−”; the “crystal precipitation, Days 7” value is reported as “−”; the “crystal precipitation, Days 22” value was “−”. Also, the “crystal precipitation, Days 30” value in series [3] (setting [5]) is reported as “−”. In series [3] (58 mM in feed medium pH 7), the “crystal precipitation, Days 0” value is on record as “−”; the “crystal precipitation, Days 1” value is reported as “−”; the “crystal precipitation, Days 7” value is given as “−”; the “crystal precipitation, Days 22” value is on record as “−”. For the same compound, in series [3] (58 mM in feed medium pH 7), the “crystal precipitation, Days 30” value was “−”. Further, the “relative stability in the culture medium” value in series [3] (setting [6]) is given as “more stable than Compound 2”. The “crystal precipitation on storage, in words” value in series [3] (58 mM in feed medium, 5° C. in the dark, up to 30 days after the start of storage) is listed as “no crystal precipitation was observed”. The “relative stability compared with L-cysteine” value in series [4] (5° C. in the dark) is reported as “more stable than L-cysteine”. In series [4], the “crystal precipitation, Days 0” value is “−”; the “crystal precipitation, Days 3” value was “−”; the “crystal precipitation, Days 7” value was “−”; the “crystal precipitation, Days 14” value was “−”. Moreover, in series [4], the “crystal precipitation, Days 21” value is on record as “−” and the “crystal precipitation, Days 24” value is “−”.

`Cl.N[C@@H](CS)C(=O)O.O` [L-cysteine, L-cysteine hydrochloride monohydrate]: the “proliferation of cells” value in series [1] is recorded as “Proliferation of cells was observed”. In series [3] (setting [5]), the “crystal precipitation, Days 0” value is “−”; the “crystal precipitation, Days 1” value was “−”; the “crystal precipitation, Days 7” value is reported as “+++”; the “crystal precipitation, Days 22” value is reported as “+++”. Moreover, the “crystal precipitation, Days 30” value in series [3] (setting [5]) is reported as “+++”. In series [3] (58 mM in feed medium pH 7), the “crystal precipitation, Days 0” value is given as “−”; the “crystal precipitation, Days 1” value was “−”; the “crystal precipitation, Days 7” value is recorded as “+++”; the “crystal precipitation, Days 22” value is on record as “+++”. Moreover, the “crystal precipitation, Days 30” value in series [3] (58 mM in feed medium pH 7) is reported as “+++”. Moreover, the “significant precipitation observed from (after the start of storage)” value in series [4] (5° C. in the dark) worked out at 3 days. For the same compound, in series [4], the “crystal precipitation, Days 0” value is “−”; the “crystal precipitation, Days 3” value was “++”; the “crystal precipitation, Days 7” value is given as “+++”; the “crystal precipitation, Days 14” value is “+++”. In addition, in series [4], the “crystal precipitation, Days 21” value was “+++” and the “crystal precipitation, Days 24” value is given as “+++”.

For the compound `CC1(C(=O)O)N[C@H](C(=O)O)CS1` (mixture of isomers) [Compound 2, (2RS,4R)-2-methyl-2,4-thiazolidinedicarboxylic acid], in series [1], the “use as an alternative for L-cysteine in the basal medium” value is recorded as “able to be used as an alternative for L-cysteine” and the “proliferation of cells” value was “almost equivalent to that of the experimental group using L-cysteine”. In addition, the antibody production amount entry in series [2] is “almost equivalent to that of the experimental group of L-cysteine”. Moreover, in series [3] (setting [5]), the “crystal precipitation, Days 0” value is given as “−”; the “crystal precipitation, Days 1” value is “−”; the “crystal precipitation, Days 7” value is on record as “−”; the “crystal precipitation, Days 22” value is listed as “+”. The “crystal precipitation, Days 30” value in series [3] (setting [5]) was “+++”. For the same compound, in series [3] (58 mM in feed medium pH 7), the “crystal precipitation, Days 0” value is listed as “−”; the “crystal precipitation, Days 1” value is “−”; the “crystal precipitation, Days 7” value is listed as “−”; the “crystal precipitation, Days 22” value is listed as “++”. Besides, in series [3] (58 mM in feed medium pH 7), the “crystal precipitation, Days 30” value is listed as “+++”. Also, the “precipitation observed from (after the start of storage)” value in series [3] (setting [6]) was determined as 22 days. Besides, the “relative stability compared with L-cysteine” value in series [4] (5° C. in the dark) is “more stable than L-cysteine”. In series [4], the “crystal precipitation, Days 0” value is given as “−”; the “crystal precipitation, Days 3” value is “−”; the “crystal precipitation, Days 7” value was “−”; the “crystal precipitation, Days 14” value is “−”. Moreover, in series [4], the “crystal precipitation, Days 21” value was “−” and the “crystal precipitation, Days 24” value is “−”.

The values above are taken from patent US20230044979A1, “ANIMAL CELL CULTURING METHOD” (AJINOMOTO CO., INC., priority 2020, published 2023).
